Assays:
Rattus norvegicus [1] = test: Reduction in paw swelling at 100 mg/kg po dose in rat using adjuvant arthritis test.; type: functional
Rattus norvegicus [2] = species on record: Rattus norvegicus; test: Potency relative to [2-(2,4-Dichloro-phenoxy)-phenyl]-acetic acid in rat adjuvant arthritis test; type: functional

SMILES: Cc1ccc(Oc2ccc(Cl)cc2CC(=O)O)c(C)c1
- Reduction (Rattus norvegicus [1]): 22

SMILES: Cc1ccc(Oc2ccc(Cl)c(C)c2)c(CC(=O)O)c1
- Reduction (Rattus norvegicus [1]): 9

SMILES: Cc1ccc(Oc2ccc(CC(C)C)cc2Cl)c(CC(=O)O)c1
- Reduction (Rattus norvegicus [1]): 19
- Relative potency (Rattus norvegicus [2]): 0.2

SMILES: Cc1ccc(Oc2ccc(C(F)(F)F)cc2CC(=O)O)c(Cl)c1
- Reduction (Rattus norvegicus [1]): 0

SMILES: O=C(O)Cc1cc(Cl)ccc1Oc1ccccc1Cl
- Reduction (Rattus norvegicus [1]): 0

SMILES: Cc1ccc(Oc2cc(C)c(Cl)cc2C)c(CC(=O)O)c1
- Reduction (Rattus norvegicus [1]): 10

SMILES: O=C(O)Cc1ccccc1Oc1ccc([N+](=O)[O-])cc1Cl
- Reduction (Rattus norvegicus [1]): 19%

SMILES: Cc1ccc(Oc2cc(C)c(C)cc2Cl)c(CC(=O)O)c1
- Reduction (Rattus norvegicus [1]): 46
- Relative potency (Rattus norvegicus [2]): 0.4

SMILES: Cc1ccc(Oc2ccc(C)cc2CC(=O)O)c(Cl)c1
- Reduction (Rattus norvegicus [1]): 35
- Relative potency (Rattus norvegicus [2]): 0.4

SMILES: O=C(O)Cc1ccccc1Oc1c(Cl)cccc1Cl
- Reduction (Rattus norvegicus [1]): 20

SMILES: CCCCc1ccc(Oc2ccc(C)cc2CC(=O)O)c(Cl)c1
- Reduction (Rattus norvegicus [1]): 25
- Relative potency (Rattus norvegicus [2]): 0.9

SMILES: Cc1ccc(Oc2ccc(N)cc2CC(=O)O)c(Cl)c1
- Reduction (Rattus norvegicus [1]): 3

SMILES: Cc1ccc(Oc2cc(C)c(Cl)cc2Cl)c(CC(=O)O)c1
- Reduction (Rattus norvegicus [1]): 45
- Relative potency (Rattus norvegicus [2]): 0.4

SMILES: O=C(O)Cc1ccccc1Oc1cc(Cl)c(Cl)cc1Cl
- Reduction (Rattus norvegicus [1]): 17

SMILES: CCc1ccc(Oc2ccc(C)cc2CC(=O)O)c(CC)c1
- Reduction (Rattus norvegicus [1]): 8

SMILES: Cc1ccc(Oc2cccc(Cl)c2Cl)c(CC(=O)O)c1
- Reduction (Rattus norvegicus [1]): 13

SMILES: CCCCOc1ccc(CC(=O)O)c(Oc2ccc(C)cc2Cl)c1
- Reduction (Rattus norvegicus [1]): 0

SMILES: O=C(O)CCc1ccccc1Oc1ccc(Cl)cc1Cl
- Reduction (Rattus norvegicus [1]): 0

SMILES: O=C(O)C(=O)c1ccccc1Oc1ccc(Cl)cc1Cl
- Reduction (Rattus norvegicus [1]): 23
- Relative potency (Rattus norvegicus [2]): 0.3

SMILES: O=C(O)Cc1ccc(Oc2ccc(Cl)cc2Cl)cc1
- Reduction (Rattus norvegicus [1]): 2

SMILES: CCc1ccc(Oc2ccccc2CC(=O)O)c(Cl)c1
- Reduction (Rattus norvegicus [1]): 32
- Relative potency (Rattus norvegicus [2]): 0.7

SMILES: Cc1ccc(Oc2ccccc2C(F)(F)F)c(CC(=O)O)c1
- Reduction (Rattus norvegicus [1]): 0

SMILES: O=C(O)Cc1cc(Cl)ccc1Oc1cccc(Cl)c1
- Reduction (Rattus norvegicus [1]): 0

SMILES: Cc1ccc(Oc2c(C)cc(Cl)cc2Cl)c(CC(=O)O)c1
- Reduction (Rattus norvegicus [1]): 23
- Relative potency (Rattus norvegicus [2]): 0.3

SMILES: Cc1ccc(Oc2ccc(Cl)cc2)c(CC(=O)O)c1
- Reduction (Rattus norvegicus [1]): 9
- Relative potency (Rattus norvegicus [2]): 0.7

SMILES: O=C(O)Cc1ccccc1Oc1ccccc1
- Reduction (Rattus norvegicus [1]): 0

SMILES: CCCCCc1ccc(Oc2ccc(C)cc2CC(=O)O)c(Cl)c1
- Reduction (Rattus norvegicus [1]): 23
- Relative potency (Rattus norvegicus [2]): 0.3

SMILES: O=C(O)Cc1cc(Cl)ccc1Oc1ccccc1
- Reduction (Rattus norvegicus [1]): 0

SMILES: NC(=O)Cc1ccccc1Oc1ccc(Cl)cc1Cl
- Reduction (Rattus norvegicus [1]): 33
- Relative potency (Rattus norvegicus [2]): 1.3

SMILES: COc1ccccc1Oc1ccccc1CC(=O)O
- Reduction (Rattus norvegicus [1]): 38
- Relative potency (Rattus norvegicus [2]): 0.7

SMILES: O=C(O)Cc1cc(Cl)ccc1Oc1cc(Cl)ccc1Cl
- Reduction (Rattus norvegicus [1]): 40
- Relative potency (Rattus norvegicus [2]): 1

SMILES: CCCc1ccc(Oc2ccc(C)cc2CC(=O)O)c(Cl)c1
- Reduction (Rattus norvegicus [1]): 27
- Relative potency (Rattus norvegicus [2]): 0.6

SMILES: O=C(O)Cc1cc(Cl)ccc1Oc1ccccc1F
- Reduction (Rattus norvegicus [1]): 21

SMILES: Cc1cc(Oc2ccccc2CC(=O)O)c(Cl)cc1Cl
- Reduction (Rattus norvegicus [1]): 19

SMILES: O=C(O)Cc1ccccc1Oc1ccc([N+](=O)[O-])cc1[N+](=O)[O-]
- Reduction (Rattus norvegicus [1]): 0%

SMILES: Cc1ccc(Oc2ccc(Cl)cc2CC(=O)O)c(Cl)c1
- Reduction (Rattus norvegicus [1]): 10

SMILES: Cc1ccc(Oc2cc(C)c(Cl)c(C)c2)c(CC(=O)O)c1
- Reduction (Rattus norvegicus [1]): 5
- Relative potency (Rattus norvegicus [2]): 0.7

SMILES: Cc1ccc(Oc2cc(C(F)(F)F)ccc2Cl)c(CC(=O)O)c1
- Reduction (Rattus norvegicus [1]): 29
- Relative potency (Rattus norvegicus [2]): 3

SMILES: CCCCCCCCCc1ccc(Oc2ccc(C)cc2CC(=O)O)c(Cl)c1
- Reduction (Rattus norvegicus [1]): 8%

SMILES: Cc1ccc(Oc2c(Cl)cccc2Cl)c(CC(=O)O)c1
- Reduction (Rattus norvegicus [1]): 16

SMILES: O=C(O)Cc1cc([N+](=O)[O-])c([N+](=O)[O-])cc1Oc1ccc(Cl)cc1Cl
- Reduction (Rattus norvegicus [1]): 8%

SMILES: O=C(O)c1ccccc1Oc1ccc(Cl)cc1Cl
- Reduction (Rattus norvegicus [1]): 18

SMILES: Cc1ccc(Oc2c(C)cc(Cl)cc2C)c(CC(=O)O)c1
- Reduction (Rattus norvegicus [1]): 14
- Relative potency (Rattus norvegicus [2]): 0.3

SMILES: O=C(O)Cc1cc(Cl)ccc1Oc1ccc(Cl)cc1Cl
- Reduction (Rattus norvegicus [1]): 37
- Relative potency (Rattus norvegicus [2]): 1

SMILES: COc1ccc(Oc2ccc(Cl)cc2Cl)c(CC(=O)O)c1
- Reduction (Rattus norvegicus [1]): 3

SMILES: Cc1ccc(Oc2cccc(Cl)c2C)c(CC(=O)O)c1
- Reduction (Rattus norvegicus [1]): 20
- Relative potency (Rattus norvegicus [2]): 0.3

SMILES: Cc1ccc(Oc2cc(Cl)ccc2Cl)c(CC(=O)O)c1
- Reduction (Rattus norvegicus [1]): 32
- Relative potency (Rattus norvegicus [2]): 0.4

SMILES: Cc1ccc(Oc2cc(C)c(Cl)cc2C(C)C)c(CC(=O)O)c1
- Reduction (Rattus norvegicus [1]): 3

SMILES: O=C(O)Cc1ccccc1Oc1ccc(Cl)cc1[N+](=O)[O-]
- Reduction (Rattus norvegicus [1]): 4%

SMILES: O=C(O)Cc1ccccc1Oc1ccc(Cl)c(Cl)c1
- Reduction (Rattus norvegicus [1]): 20

SMILES: CN(C)c1ccc(Oc2ccc(Cl)cc2Cl)c(CC(=O)O)c1
- Reduction (Rattus norvegicus [1]): 5

SMILES: Cc1cc(Cl)ccc1Oc1ccccc1CC(=O)O
- Reduction (Rattus norvegicus [1]): 0

SMILES: CCCCCCCCc1ccc(Oc2ccc(C)cc2CC(=O)O)c(Cl)c1
- Reduction (Rattus norvegicus [1]): 13%

SMILES: Cc1cc(Oc2ccc(Cl)cc2CC(=O)O)cc(C)c1Cl
- Reduction (Rattus norvegicus [1]): 23

SMILES: Cc1cc(Cl)c(Oc2ccc(Cl)cc2CC(=O)O)cc1C
- Reduction (Rattus norvegicus [1]): 22

SMILES: Cc1ccc(Oc2ccc(O)cc2CC(=O)O)c(Cl)c1
- Reduction (Rattus norvegicus [1]): 10

SMILES: O=C(O)Cc1ccccc1Oc1ccc(Cl)cc1
- Reduction (Rattus norvegicus [1]): 0

SMILES: Cc1ccc(Oc2ccccc2F)c(CC(=O)O)c1
- Reduction (Rattus norvegicus [1]): 24

SMILES: O=C(O)Cc1cc(Cl)ccc1Oc1ccc(Cl)cc1
- Reduction (Rattus norvegicus [1]): 21

SMILES: CC(C(=O)O)c1ccccc1Oc1ccc(Cl)cc1Cl (stereo not drawn)
- Reduction (Rattus norvegicus [1]): 0

SMILES: O=C(O)Cc1ccccc1Oc1ccccc1C(F)(F)F
- Reduction (Rattus norvegicus [1]): 0

SMILES: Nc1ccc(Oc2ccc(Cl)cc2Cl)c(CC(=O)O)c1
- Reduction (Rattus norvegicus [1]): 0

SMILES: Cc1ccc(Oc2ccccc2Cl)c(CC(=O)O)c1
- Reduction (Rattus norvegicus [1]): 12

SMILES: Cc1ccc(Oc2ccc(C)cc2CC(=O)O)c(C)c1
- Reduction (Rattus norvegicus [1]): 20

SMILES: CCCCCCCCCCc1ccc(Oc2ccc(C)cc2CC(=O)O)c(Cl)c1
- Reduction (Rattus norvegicus [1]): 9%

SMILES: Cc1ccc(Oc2ccc(Cl)cc2O)c(CC(=O)O)c1
- Reduction (Rattus norvegicus [1]): 26

SMILES: COc1ccc(Oc2ccc(Cl)cc2CC(=O)O)c(Cl)c1
- Reduction (Rattus norvegicus [1]): 18

SMILES: Nc1ccc(Oc2ccccc2CC(=O)O)c(N)c1
- Reduction (Rattus norvegicus [1]): 0%

SMILES: O=C(O)Cc1ccccc1Oc1c(Cl)cc(Cl)cc1Cl
- Reduction (Rattus norvegicus [1]): 23

SMILES: CCCCc1ccc(Cl)c(Oc2ccc(C)cc2CC(=O)O)c1
- Reduction (Rattus norvegicus [1]): 5

SMILES: O=C(O)Cc1ccccc1Oc1cc(Cl)ccc1Cl
- Reduction (Rattus norvegicus [1]): 18

SMILES: O=C(O)Cc1cc([N+](=O)[O-])ccc1Oc1ccc(Cl)cc1Cl
- Reduction (Rattus norvegicus [1]): 9%

SMILES: O=C(O)Cc1cc(Cl)ccc1Oc1ccc(O)cc1Cl
- Reduction (Rattus norvegicus [1]): 36

SMILES: Cc1ccc(Oc2ccc(Cl)c(Cl)c2)c(CC(=O)O)c1
- Reduction (Rattus norvegicus [1]): 9

SMILES: Cc1ccc(Oc2ccc(Cl)cc2C)c(CC(=O)O)c1
- Reduction (Rattus norvegicus [1]): 17

SMILES: Cc1ccc(Oc2ccccc2CC(=O)O)c(C)c1
- Reduction (Rattus norvegicus [1]): 20

SMILES: O=C(O)Cc1ccccc1Oc1cccc(Cl)c1Cl
- Reduction (Rattus norvegicus [1]): 51

SMILES: Cc1ccc(Oc2cc(O)c(C)cc2CC(=O)O)c(Cl)c1
- Reduction (Rattus norvegicus [1]): 12

SMILES: CCCCCCCCCCCc1ccc(Oc2ccc(C)cc2CC(=O)O)c(Cl)c1
- Reduction (Rattus norvegicus [1]): 14%

SMILES: Cc1ccc(Oc2ccccc2CC(=O)O)c(Cl)c1
- Reduction (Rattus norvegicus [1]): 21

SMILES: CCCCCCc1ccc(Oc2ccc(C)cc2CC(=O)O)c(Cl)c1
- Reduction (Rattus norvegicus [1]): 5

SMILES: Cc1cc(Cl)ccc1Oc1ccc(Cl)cc1CC(=O)O
- Reduction (Rattus norvegicus [1]): 7

SMILES: Cc1ccc(Oc2cc(C)c(Cl)c(C)c2Cl)c(CC(=O)O)c1
- Reduction (Rattus norvegicus [1]): 20
